Series [1] is described as follows: Serum stability in 50% human serum at 37 °C (RP-HPLC, one-phase decay half-life). Particulars: human, serum (50% human serum).
Protocol: Serum stability analysis was conducted for each peptide (7×50 nmol) shown in Table 3 in 50% human serum (100 μL) at 37° C. At the end of each time point (0, 10, 30, 60, 120, 240, and 480 min), 1 M guanidine hydrochloride solution (200 μL) and ice-cold acetonitrile (600 μL) were added, and the serum-peptide solution was centrifuged at 14000 g for 10 min. The supernatant was lyophilised and redissolved in water (200 μL). All samples were analysed by RP-HPLC in the presence of phenol (50 nmol) as an internal standard, using water and acetonitrile containing 0.1% TFA, with a gradient of 10-80% acetonitrile over 30 min, and a flow rate of 1.5 mL/min. The percentage of peptide remaining was measured based on the area under curve. The percentage of peptide remaining versus time data was fitted to a non-linear one-phase exponential decay model in GraphPad Prism 9.2.0 to determine the half-life for each peptide.
For series [2], the system named is SMA patient-derived fibroblasts. Put plainly: Confocal fluorescence uptake of Cy5-labelled peptide-PMO conjugates in SMA fibroblasts. The format is cell-based, human. Conditions: 1 μM; for intracellular fluorescence pattern: 1 hr at 37° C.; for cellular uptake on addition of endosomal escape domain HA2: 1 hr, versus counterparts without HA2. As for the experimental part: FIG. 4. Representative confocal fluorescence microscopy images of SMA patient-derived fibroblasts treated with 1 μM of Cy5-labelled: (A) ApoE(141-150)-PMO; (B) HA2-ApoE(141-150)-PMO; (C) ApoE(133-150)-PMO; and (D) HA2-ApoE(133-150)-PMO, for 1 hr at 37° C.
SMA fibroblasts (6.0×10^4 cells/well) were plated onto a p-Slide 4 Well Ph+ Glass Bottom chamber slides precoated with poly-L-ornithine (Ibidi GmbH). After 24 hr, cells were incubated for 1 hr with Cy5-labelled peptide-PMO conjugates (1 μM or 5 μM) diluted in serum free Opti-MEM. At 10 min to end of 1 hr incubation, Hoechst (1:1000 dilution) was added to each well.

Series [3] has as its system fibroblasts. Put plainly: Viability of fibroblasts by MTS assay (cytotoxicity). The format is cell-based, human. As for the experimental part:
FIG. 5. Effect of the endosomal escape domain HA2 and lipidation of peptide-PMO conjugates on the viability of fibroblasts determined using MTS assay. UT, untreated control.
The peptide-PMO conjugates were tested up to 10 μM which is 10-fold greater than the concentration needed to achieve a high level of activity.

Series [4] relates to SMN2. As to the kind of experiment: SMN2 splice-switching for exon 7 inclusion by RT-qPCR in SMA Type I patient-derived fibroblasts (Example 2). The format is cell-based, human. Particulars: for level of exon-7 inclusion activity (full length SMN2/HPRT1, normalised to untreated control set to 1): treated 4 hrs, then 20 hrs growth medium, mean±SEM. The source says:
FIG. 3. (A) SMN2 pre-mRNA exon-7 skipping and production of 80-90% SMN2Δ7 mRNA transcripts. Peptide-PMO binding to Intron-splicing silencer (ISS-N1) and restoration of SMN2 splicing and production of full-length SMN2 mRNA transcripts. The positions of forward and reverse primers highlighted on full-length mRNA. (B)-(C) Effect of administration of peptides linked to PMO for SMN2 exon 7 inclusion, measured as change in the level of full length SMN2/HPRT1 in SMA patient-derived fibroblasts, each at two concentrations, 0.5 μM and 1 μM (or 1 μM and 5 μM in the case of PMO alone). UT, untreated. (B) For PMO constructs, from left to right: PMO; ApoE(141-150)-PMO; ApoE(133-150)-PMO. (C) For PMO constructs, from left to right: PMO; HA2-PMO; GALA-PMO; NLS-PMO; ApoE(141-150)-PMO; HA2-ApoE(141-150)-PMO; GALA-ApoE(141-150)-PMO; NLS-ApoE(141-150)-PMO; H4-ApoE(141-150)-PMO; A4-ApoE(141-150)-PMO. *P<0.05,**P<0.001, ***P<0.0001 cf. Untreated (control) and PMO (1 and 5 μM); #P<0.001 cf. GALA-/NLS-/H4-ApoE(141-150)-PMO (1 μM), ^<0.001 cf. ApoE(133-150)-PMO (0.5 and 1 μM), ^OP<0.001 cf. ApoE(141-150)-PMO (1 μM), ^&P<0.05 cf.
The inventors then evaluated cellular uptake and activity of these peptide-PMO conjugates in SMA Type I patient-derived fibroblasts with two copies of SMN2. Efficiency of uptake was assessed by RT-qPCR using SMN2 splice-switching for exon 7 inclusion (see FIG. 3A).
SMA Type I patient-derived fibroblasts (SMN2^+/+, GM03813, Coriell Cell Repositories) were maintained in Dulbecco's Modified Eagle's Medium (DMEM), supplemented with 10% foetal bovine serum (FBS), 1% Penicillin/Streptomycin and 1% L-glutamine (L-glu) at 37° C. Cells were plated in 6-well plates at a density of 3×10^5/well in 6 well plates one day prior to treatment with PMO and peptide-PMO conjugates. Cells used were from passage 8-22. PMO and the peptide-PMO conjugates were dissolved in nuclease-free water and diluted to appropriate concentrations in Opti-MEM reduced serum medium. Cells were treated for 4 hrs at 37° C. The transfection medium was then removed and replaced with growth medium in which the cells were incubated for 20 hrs.
Cells were washed with PBS and total cellular RNA was extracted using Trizol (TRI Reagent®, Sigma) according to the manufacturer's instructions (Life Technologies). 400 ng purified RNA was reverse transcribed into cDNA using BioRad iScript Reverse Transcription Supermix kit according to the manufacturer's instructions. The reverse transcription was performed using the Veriti Thermal Cycler (ThermoFisher Scientific) with the thermal cycling conditions: 25° C. for 5 min, 46° C. for 20 min, 95° C. for 1 min followed by a 4° C. holding period.
Quantitative PCR (20 ng cDNA/well) was carried out in a 96-well plate in triplicate using SsoAdvanced Universal SYBR Green Supermix on a Biorad CFX96 Touch™ Real-Time PCR detection system. The amplification was carried out using full-length SMN2-specific primers: Ex-6 Forward 5′-[…]-3′ (SEQ ID NO:10) and Ex7-8 reverse 5′[…]-3′ (SEQ ID NO:11). Human HPRT1 was used as the internal reference gene with forward primer sequence 5′-[…]-3′ (SEQ ID NO:12) and reverse primer sequence 5′-[…]-3′ (SEQ ID NO:13). The ΔΔCt method was used to correct the Ct values against the HPRT1 Ct values. The values obtained were normalised to the untreated control values which were set to 1. Statistical analysis was carried out using one-way ANOVA with post-hoc Bonferroni for multiple groups comparison (GraphPad Prism V.8, 2018). All data are expressed as mean±SEM from at least three independent experiments with p<0.05 considered significant.
(Quantitative PCR measures a nucleic acid by following its amplification.)

The format of series [5] is in vivo, mice. Particulars: 8 mg/kg; dose escalation at 5, 8 and 10 mg/kg; data not shown.
In series [6] the test system is SMN2. Put plainly: Full-length SMN2 RNA in tissues of transgenic SOD1+/- SMN2+/- mice by RT-qPCR. The format is in vivo. Particulars: 8 mg/kg/week for 5 weeks, tail vein injection, 7 days after final administration, mean±SEM, versus saline-treated control. As for the experimental part: FIG. 6. SMN upregulation in SOD1^G93A mice. A, administration regime. B, Full length (FL) SMN2 levels in brain, spinal cord (S. cord), kidney and quadriceps (Quad) as determined by RT-qPCR in untreated mice (left hand columns) and mice treated with SEQ ID NO:6-PMO conjugate (right hand columns) after administration at a dose of 8 mg/kg weekly for five weeks. *, p<0.05; **, p<0.001; ***, p<0.0001 cf. saline-treated group.
A peptide consisting of the amino acid sequence of SEQ ID NO:6 was conjugated to the PMO antisense oligonucleotide of SEQ ID NO:9 via a non-reducible thioether (thiol-maleimide) bond as described in Example 1. […] Transgenic SOD1^+/− SMN2^+/− mice (n=5) at P60 were treated with Ac-HA2-ApoE(133-150)-PMO conjugate at 8 mg/kg/week for 5 weeks via tail vein injection. Age-matched control mice (n=6) were given saline. Tissues (brain, spinal cord, kidney and quadriceps) were harvested 7 days after final administration. The level of full-length SMN2 RNA was measured using RT-qPCR as above. The level of full-length SMN2 was normalised to mouse HPRT1 with forward primer sequence 5′-[…]-3′ (SEQ ID NO:14) and reverse primer sequence 5′[…]-3′ (SEQ ID NO:15). Data were expressed as mean±SEM. The statistical significances between saline-treated and Ac-HA2-ApoE(133-150)-PMO-treated groups were determined using the Student's t test. […]

For series [7] the following is noted: intrathecal injection; cited from earlier work.

Square brackets hold non-standard residues; d marks the D form. Peptide text beside a SMILES is read from it. * marks the point of attachment. Myristoyl = CCCCCCCCCCCCCC(=O)*; PMO = not defined here; AEEA = NCCOCCOCC(=O)O; Ahx = NCCCCCC(=O)O; Mpa = O=C(O)CCS

What is called half-life is the time needed for the level to fall by half in the phase considered. High values mean slow decline, low ones rapid decline. With `CC[C@H](C)[C@H](NC(=O)[C@H](C)NC(=O)[C@H](Cc1c[nH]cn1)NC(=O)[C@H](Cc1ccccc1)NC(=O)[C@H](CC(C)C)NC(=O)CNC(=O)COCCOCCNC(=O)CCS)C(=O)N[C@@H](C)C(=O)N[C@@H](Cc1c[nH]cn1)C(=O)N[C@@H](Cc1ccccc1)C(=O)N[C@H](C(=O)N[C@@H](Cc1c[nH]cn1)C(=O)NCC(=O)NCC(=O)N[C@@H](Cc1c[nH]c2ccccc12)C(=O)N[C@@H](Cc1c[nH]cn1)C(=O)NCCOCCOCC(=O)N[C@@H](CC(C)C)C(=O)N[C@@H](CCCNC(=N)N)C(=O)N[C@H](C(=O)N[C@@H](CCCNC(=N)N)C(=O)N[C@@H](CC(C)C)C(=O)N[C@@H](C)C(=O)N[C@@H](CO)C(=O)N[C@@H](Cc1c[nH]cn1)C(=O)N[C@@H](CC(C)C)C(=O)N[C@@H](CCCNC(=N)N)C(=O)N[C@@H](CCCCN)C(=O)N[C@@H](CC(C)C)C(=O)N[C@@H](CCCNC(=N)N)C(=O)N[C@@H](CCCCN)C(=O)N[C@@H](CCCNC(=N)N)C(=O)N[C@@H](CC(C)C)C(=O)N[C@@H](CC(C)C)C(=O)N[C@@H](CCCNC(=N)N)C(=O)O)C(C)C)[C@@H](C)CC` [TPA-HA2-ApoE(133-150), TPA-mPEG-GLFHAIAHFIHGGWH-mPEG-LR VRLASHLRKLRKRLLR] ([Mpa][AEEA]GLFHAIAHFIHGGWH[AEEA]LRVRLASHLRKLRKRLLR-OH), the half-life at 500 µM in series [1] is 1.1 h.
Turning to “Ac-GLFHAIAHFIHGGWH-X-LRKLRKRLLR-X-C-PMO [HA2-ApoE(141-150)-PMO]”, in series [2], the intracellular fluorescence pattern result is listed as “higher fluorescence intensity with a more diffused pattern” and the “cellular uptake on addition of endosomal escape domain HA2” value is “significantly enhanced cellular uptake”. In series [3] (at 10 μM), the “effect on cell viability” value was “decrease in cell viability”. The “effect on cell viability” value in series [3] (up to 5 μM) is “None of the P-PMO conjugates had a significant effect on cell viability”. Also, in series [4] (0.5 μM and 1 μM, versus comparator), the “exon-7 inclusion activity, change in words” value is reported as “significant increase in the activity”.
For “Ac-GLFHAIAHFIHGGWH-X-LRVRLASHLRKLRKRLLR-X-C-PMO [HA2-ApoE(133-150)-PMO]”, in series [2], the intracellular fluorescence pattern entry is given as “higher fluorescence intensity with a more diffused pattern”. In addition, the “cellular uptake on addition of endosomal escape domain HA2” value in series [2] is reported as “significantly enhanced cellular uptake”. Besides, the “effect on cell viability” value in series [3] (at 10 μM) is listed as “decrease in cell viability”; in series [3] (up to 5 μM) it was “None of the P-PMO conjugates had a significant effect on cell viability”. For the same molecule, the tolerability entry in series [5] is recorded as “well-tolerated without any signs of adverse effects”. Also, the figures for the “level of full length SMN2 RNA (normalised to mouse HPRT1)” value in series [6] (brain) and in series [6] (spinal cord) were 1.19±0.06 and 1.56±0.1, respectively. The “level of exon-7 inclusion activity (full length SMN2/HPRT1, normalised to untreated control set to 1)” value is on record as 2.02±0.12 in series [4] (0.5 μM) and 2.8±0.13 in series [4] (1 μM).
For the molecule “Ac-LRKLRKRLLR-X-C-PMO [ApoE(141-150)-PMO]”, the intracellular fluorescence pattern entry in series [2] is listed as “punctate intracellular fluorescence pattern”. Besides, the “exon-7 inclusion activity, dependence on concentration” value in series [4] (FIG. 3B/3C, 0.5 μM and 1 μM) is “concentration-dependent increase in activity”.
On to “Myr-GLFHAIAHFIHGGWH-X-LRKLRKRLLR-X-C-PMO ({Myristoyl-Gly-Leu-Phe-H2N-Ala-Ile-Ala-H2N-Phe-Ile-H2N-Gly-Gly-Trp-H2N-Ahx}-LRKLRKRLLR[Ahx]C-{PMO}; reading uncertain; also: printed as Myr-GLFHAIAHFIHGGWH-X-LRKLRKRLLR-X-C-PMO; UniProt P02649 159-168, looked up, fragment) [Myr-HA2-ApoE(141-150)-PMO]”, for which the entries for the “effect on cell viability” value in series [3] (at 10 μM) and in series [3] (up to 5 μM) were “decrease in cell viability” and “None of the P-PMO conjugates had a significant effect on cell viability”, respectively.
Turning to “Myr-GLFHAIAHFIHGGWH-X-LRVRLASHLRKLRKRLLR-X-C-PMO [Myr-HA2-ApoE(133-150)-PMO]”, the “effect on cell viability” value was “decrease in cell viability” in series [3] (at 10 μM) and “None of the P-PMO conjugates had a significant effect on cell viability” in series [3] (up to 5 μM).
Consider “TCACTTTCATAATGCTGG (chemistry not given here) [Nusinersen, FDA-approved antisense oligonucleotide for the treatment of spinal muscular atrophy]”, for which the “side effects such as postprocedural headache and backpain, share of adult patients” value in series [7] is given as 32%.

These data come from patent publication US20230399378A1, “PEPTIDE-BASED DELIVERY OF AGENTS” (THE FLOREY INSTITUTE OF NEUROSCIENCE AND MENTAL HEALTH, priority 2020, published 2023).
